Reference: patent US10638779B2, “Hemiacetyl proflavors” (FIRMENICH SA, priority 2014, dated 2020)

Tests used:
[1] = Assessment of hydrolysis rate at pH 3.0 (acetaldehyde release, UV/Vis 276 nm); format: physicochemical; conditions: for Acetaldehyde release rate relative to Comparative Samples 2-5: pH 3.0; for half-life / Half life (s) at pH 3.0: pH 3.0 citrate buffer, stirring at 200 rpm, first order release of acetaldehyde, measured for this work; for half-life: read-out: Half life (s) at pH 3.0 (converted)
Experimental: Assessment of Hydrolysis Rate at pH 3.0
Instant beverage applications require rapid hydrolysis of the precursor molecules in order to rapidly release acetaldehyde. Because such beverages might be consumed immediately upon preparation, it is desired for the release to be as rapid as possible.
A pH 3.0 buffer solution was prepared by adding 16.43 g citric acid (CAS 77-92-9) and 4.26 g disodium citrate (CAS 144-33-2) to 1 L of deionized water. Aliquots of the Examples 1, 2 and 10 preparations were added to the buffer solution within a Distek 2100B USP 2 dissolution system stirring at 200 rpm. The concentration of acetaldehyde in solution was monitored as a function of time using a UV/Vis spectrometer probe which measured absorbance at 276 nm every 1 second. Results for comparative samples were taken from work by Gassenmeier et al.. A sample of acetaldehyde diethyl acetal was also measured directly and the result was similar to that reported by Gassenmeier et al. Examples 1, 2 and 10 released acetaldehyde faster than Comparative Samples 2-5.

[2] = Assessment of hydrolysis rate under spray drying feed conditions (pH 8.0 buffer/limonene emulsion); format: physicochemical; conditions: for t50 values relative to Comparative Sample 1: pH 8.0 emulsion; for t50 at pH 8.0 (time to 50% of the maximum absorbance): pH 8.0 phosphate buffer, 0.20 g in 0.8 g limonene added to 10 g buffer (emulsion)
Experimental: Assessment of Hydrolysis Rate Under Spray Driving Feed Conditions
Acetaldehyde precursors suitable for rendering into dry powders must avoid releasing significant levels of acetaldehyde during various stages of processing. In particular they should resist hydrolysis during the preparation of a spray drying feed emulsion, which can be neutral to basic pH and can contain a significant volume fraction of an oil phase.
A pH 8.0 buffer solution was prepared by adding 49.92 g disodium phosphate heptahydrate (CAS 7782-85-6) and 1.93 g monosodium phosphate (CAS 7558-80-7) to 1 L of deionised water. Aliquots of 0.20 g of the Examples 1, 2 and 10 preparations were dissolved in 0.8 g of limonene (CAS 5989-25-7) added to 10 g of the buffer solution within a 30 mL Erlenmeyer flask containing a stir bar. The concentration of acetaldehyde in solution was monitored as a function of time using a UV/Vis spectrometer probe measuring absorbance at 276 nm. Stirring was periodically stopped to allow oil droplets to rise to the surface and collect an unobscured absorbance reading of the aqueous solution. Release followed mixed zero and first order kinetics. t50 (the time to 50% of the maximum absorbance) values are reported in Table 2. Comparative Sample 1 has t50 of 2.1 minutes, which is so short that a person skilled in the art would consider this compound at risk of experiencing a problematic degree of hydrolysis during processing.

| Compound | Acetaldehyde release rate relative to Comparative Samples 2-5 [1] | half-life [1] [s] | t50 values relative to Comparative Sample 1 [2] | t50 at pH 8.0 (time to 50% of the maximum absorbance) [2] [min] | Half life (s) at pH 3.0 [1] [s] |
| --- | --- | --- | --- | --- | --- |
| CCOC(C)OC(=O)CCC(=O)OC(C)OCC (stereo not drawn) [Example 1, Bis(1-ethoxyethyl) succinate] | faster | 96 | longer | 14.0 | – |
| CCOC(C)OC(=O)CCCCC(=O)OC(C)OCC (stereo not drawn) [Example 2, Bis(1-ethoxyethyl) adipate] | faster | 185 | longer | 44.6 | – |
| CCOC(C)OCC [Comparative Sample 2, Acetaldehyde diethyl acetal, reference compound] | – | – | – | – | 539 |
| CCOC(C)OC(C)=O (stereo not drawn) [Example 10, 1-ethoxyethyl acetate, reference compound] | faster | – | – | 2.1 | 31 |
